Assays:
[1] = test system: human PBMCs; assay type: cell-based
[2] = test system: human PBMCs; assay type: cell-based; remark: listed apart in the source

## RGTANWARVISRGANWAKVILRNWAKVI [BI330-83d]
[1]
  Intracellular Uptake: 52.14
[2]
  Extracellular Uptake: 267.38

## RRGTANWARVISRANWAKVILRNWAKVI [BI330-83]
[1]
  Intracellular Uptake: 194.69
[2]
  Extracellular Uptake: 364.04

## RGYLPAVGAPIRRRVIRVIAHGLRLR [BI310-511]
[1]
  Intracellular Uptake: 22.62
[2]
  Extracellular Uptake: 227.46

## RGYLPAVGAPIRRVIRVIAHGLRL [BI310-511g]
[1]
  Intracellular Uptake: 66.74
[2]
  Extracellular Uptake: 171.31

## RGTANWARVISRANWAKVILRNWAKVI [BI330-83c]
[1]
  Intracellular Uptake: 154.43
[2]
  Extracellular Uptake: 435.66

## RRGYLPAVGAPIRRVIRVIAHGLRL [BI310-511d]
[1]
  Intracellular Uptake: 70.64
[2]
  Extracellular Uptake: 267.15

## RRGYLPAVGAPIRRVIRVIAHGLRLR [BI310-511b]
[1]
  Intracellular Uptake: 67.29
[2]
  Extracellular Uptake: 466.71

## RGYLPAVGAPIRRVIRVIAHGLRLR [BI310-511e]
[1]
  Intracellular Uptake: 44.59
[2]
  Extracellular Uptake: 473.80

## RRGYLPAVGAPIRRRVIRVIAHGLRL [BI310-511c]
[1]
  Intracellular Uptake: 31.83
[2]
  Extracellular Uptake: 203.62

## RGTANWARVISRRANWAKVILRNWAKVI [BI330-83b]
[1]
  Intracellular Uptake: 120.10
[2]
  Extracellular Uptake: 518.60

## RGYLPAVGAPIRVIRVIAHGLRLR [BI310-511f]
[1]
  Intracellular Uptake: 26.85
[2]
  Extracellular Uptake: 178.61
